Some test systems named below: SK-MEL-28; HCT-116; UACC-257; RPMI-8226; RXF 393; SR; NCI-H226; NCI-H522; SK-OV-3; SF-539; U-251; ACHN; TK-10; A549; NCI-H23; SNB-75; HL-60; OVCAR-8; NCI/ADR-RES.
Test in all cases: NCI anticancer screen, dose series, 48 h

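These data come from cells grown in 96-well plates and exposed to compound for 48 hours at five concentrations. The concentration for 50% growth inhibition is given as GI50.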 The source made the active and inactive calls. Cut-off read from the data, not from the text of the source: active = GI50 up to about 1.1 µM and inactive = higher. Bounds are passed on as bounds.

Take `CC1=C(/C=C/C(C)=C/C=C/C(C)=C/C=C/C=C(C)/C=C/C=C(C)/C=C/C2=C(C)C(=O)C(O)CC2(C)C)C(C)(C)CC(O)C1=O` (configuration not stated): the GI50 with SK-MEL-28, in the test on HCT-116, in the test on UACC-257, with RPMI-8226, in the test with RXF 393 and with SR was > 100 µM (inactive) each time. The GI50 with NCI-H226, in the test with NCI-H522, in the test with SK-OV-3, in the test on SF-539, in the test with U-251 and in the test with ACHN was > 100 µM (inactive) in each case. The GI50 in the test on TK-10, in the test on A549, in the test with NCI-H23, in the test on SNB-75, in the test with HL-60 and in the test on OVCAR-8 was > 100 µM (inactive) each time.
Take `c1ccc2c3nc(C4CCCC4)nc-3c(NC3CCCC3)[nH]c2c1`: the GI50 is 13 µM (inactive) in the test with SK-MEL-28; 5.66 µM (inactive) in the test with HCT-116; 5.94 µM (inactive) in the test on UACC-257; 21.2 µM (inactive) in the test on RPMI-8226; 14.7 µM (inactive) in the test with RXF 393; 10.3 µM (inactive) in the test with SR. Besides, the GI50 was 24.7 µM (inactive) in the test with NCI-H226; 18.4 µM (inactive) in the test on NCI-H522; 32.1 µM (inactive) in the test with SK-OV-3; 15.3 µM (inactive) in the test with SF-539; 3.23 µM (inactive) in the test on U-251; 25.7 µM (inactive) in the test with ACHN. Moreover, the GI50 in the test on TK-10 is 35.2 µM (inactive); in the test with A549 it was 21 µM (inactive); in the test on NCI-H23, 15.7 µM (inactive); in the test on SNB-75, 66.1 µM (inactive); in the test on HL-60, 2.3 µM (inactive); with OVCAR-8, 6.87 µM (inactive).
As to `CCOC(=O)/N=c1\ss/c(=N\C(=S)N(C)C)n1-c1ccccc1`, the GI50 in the test with SK-MEL-28 was 1.82 µM (inactive); in the test with HCT-116, 7.62 µM (inactive); with UACC-257 it was > 10 µM (inactive); with RPMI-8226 it was 7.48 µM (inactive); in the test with RXF 393, 1.07 µM (active); in the test with SR, 3.72 µM (inactive). Besides, the GI50 with NCI-H226 is > 10 µM (inactive); with NCI-H522, 0.235 µM (active); with SK-OV-3, > 10 µM (inactive); in the test on SF-539, 40.7 µM (inactive); with U-251, 19.4 µM (inactive); in the test on ACHN, 52.1 µM (inactive). The GI50 with TK-10 was 63 µM (inactive); in the test with A549, 1.11 µM (active); in the test on NCI-H23, 67.5 µM (inactive); with SNB-75 it was 6.03 µM (inactive); with HL-60, > 10 µM (inactive); in the test with OVCAR-8 it was > 10 µM (inactive).
With `CCSC1=N/C(=C\c2ccco2)C(=O)N1`, the GI50 in the test on SK-MEL-28, in the test on HCT-116, in the test on NCI/ADR-RES, in the test on RPMI-8226, in the test with SR and with NCI-H226 was > 100 µM (inactive) throughout. Moreover, the GI50 with NCI-H522, in the test with SK-OV-3, with U-251, in the test on ACHN, with TK-10 and in the test with A549 was > 100 µM (inactive) in each case. Moreover, the GI50 with NCI-H23, in the test on SNB-75 and in the test with OVCAR-8 was > 100 µM (inactive) throughout.
`CC(=O)OC1C2CCC3CC2C2(SCCS2)C31` (configuration not stated): the GI50 in the test with SK-MEL-28, in the test with HCT-116, with NCI/ADR-RES, in the test on UACC-257, in the test on RPMI-8226 and in the test with RXF 393 was > 100 µM (inactive) each time. Besides, the GI50 was > 100 µM (inactive) in the test on SR; > 100 µM (inactive) with NCI-H226; > 100 µM (inactive) in the test with NCI-H522; > 100 µM (inactive) in the test with SK-OV-3; 65.9 µM (inactive) in the test on SF-539; > 100 µM (inactive) in the test with U-251. The GI50 was > 100 µM (inactive) in the test with ACHN; > 100 µM (inactive) in the test with TK-10; > 100 µM (inactive) in the test with A549; > 100 µM (inactive) in the test with NCI-H23; 70.8 µM (inactive) in the test on HL-60; > 100 µM (inactive) in the test on OVCAR-8.
Consider `CC(=O)c1nc(C#N)c(N)o1`, for which the GI50 in the test on SK-MEL-28, in the test on HCT-116, with NCI/ADR-RES, in the test on UACC-257, in the test with RPMI-8226 and in the test on RXF 393 was > 100 µM (inactive) in each case. Also, the GI50 with NCI-H226, with NCI-H522, in the test on SK-OV-3, in the test with SF-539, in the test with U-251 and in the test on ACHN was > 100 µM (inactive) in each case. The GI50 in the test on TK-10, in the test with A549, with NCI-H23, in the test with SNB-75 and with OVCAR-8 was > 100 µM (inactive) throughout.
Regarding `CCOC(=O)/C(C)=C\[C@@]1(C)O[C@@H](C)[C@@](C)(OC(C)=O)[C@@H]1OC(C)=O`, the GI50 in the test on SK-MEL-28 was > 100 µM (inactive); in the test on HCT-116 it was 40.9 µM (inactive); with NCI/ADR-RES, 30.2 µM (inactive); in the test on UACC-257 it was 28.2 µM (inactive); in the test with RPMI-8226 it was 51.8 µM (inactive); in the test on SR, 58.3 µM (inactive). The GI50 in the test with NCI-H226 is 39.9 µM (inactive); in the test on NCI-H522, 25.2 µM (inactive); in the test on SK-OV-3, 75.7 µM (inactive); with SF-539, > 100 µM (inactive); with U-251 it was 64.1 µM (inactive); with ACHN, 41 µM (inactive). Moreover, the GI50 in the test on TK-10 is 78.9 µM (inactive); with A549, 45.4 µM (inactive); in the test on NCI-H23, 21.5 µM (inactive); with HL-60 it was 39.6 µM (inactive); in the test on OVCAR-8, 67.5 µM (inactive).
For `CN(C)C(=N/O)/C(=N\O)N(C)C`, the GI50 in the test on SK-MEL-28, with HCT-116, in the test with UACC-257, in the test on RPMI-8226, in the test with RXF 393 and with SR was > 100 µM (inactive) each time. Further, the GI50 in the test with NCI-H226 was 15.6 µM (inactive); in the test with NCI-H522 it was > 100 µM (inactive); in the test on SK-OV-3, > 100 µM (inactive); in the test on SF-539, > 100 µM (inactive); in the test on U-251 it was > 100 µM (inactive); in the test on ACHN, > 100 µM (inactive). The GI50 in the test on TK-10, in the test on A549, in the test with NCI-H23, in the test with SNB-75, with HL-60 and in the test on OVCAR-8 was > 100 µM (inactive) in each case.
As to `COc1ccc(/C=C2\SC(c3ccc(OC)cc3)N(NC(=O)Cc3ccccc3)C2=O)cc1` (configuration not stated), the GI50 is > 100 µM (inactive) with SK-MEL-28; > 100 µM (inactive) in the test on HCT-116; > 100 µM (inactive) in the test with UACC-257; 76.4 µM (inactive) in the test on RPMI-8226; 63.7 µM (inactive) in the test on RXF 393; > 100 µM (inactive) in the test on SR. Besides, the GI50 in the test on NCI-H226, with NCI-H522, in the test on SK-OV-3, with SF-539, in the test on U-251 and with ACHN was > 100 µM (inactive) throughout. Also, the GI50 with TK-10 is > 100 µM (inactive); in the test on A549 it was > 100 µM (inactive); in the test on NCI-H23, > 100 µM (inactive); with SNB-75, > 100 µM (inactive); with HL-60 it was 94.8 µM (inactive); in the test on OVCAR-8, > 100 µM (inactive).
As to `N#CCCC1(CCC#N)CCc2ccccc2C1=O`, the GI50 in the test with SK-MEL-28, in the test with HCT-116, in the test on NCI/ADR-RES, with UACC-257, with RPMI-8226 and in the test on SR was > 100 µM (inactive) throughout. The GI50 with NCI-H226, in the test with NCI-H522, in the test on SK-OV-3, with SF-539, in the test on U-251 and in the test on ACHN was > 100 µM (inactive) each time. Also, the GI50 with TK-10, with NCI-H23, in the test with SNB-75, with HL-60 and with OVCAR-8 was > 100 µM (inactive) throughout.
As for `C[C@@]12CCC(=O)c3coc(c31)C(=O)c1cc3c(cc12)C(=O)C=CC3=O` [HELENAQUINONE], the GI50 in the test on SK-MEL-28 is 16.3 µM (inactive); in the test with HCT-116 it was 15.4 µM (inactive); in the test with UACC-257, 11.6 µM (inactive); with RPMI-8226, 64.6 µM (inactive); in the test with RXF 393, 21.2 µM (inactive); in the test with SR it was 30.1 µM (inactive). The GI50 was 29 µM (inactive) with NCI-H226; 9.2 µM (inactive) in the test on NCI-H522; > 100 µM (inactive) with SK-OV-3; 17.6 µM (inactive) in the test with SF-539; 23.7 µM (inactive) in the test on U-251; 16.5 µM (inactive) in the test on ACHN. In addition, the GI50 was 31 µM (inactive) with TK-10; 45.2 µM (inactive) in the test with A549; 12.5 µM (inactive) in the test with NCI-H23; 20.9 µM (inactive) with SNB-75; 2.45 µM (inactive) in the test on HL-60; 16.3 µM (inactive) with OVCAR-8.

Source of the values: ChEMBL document CHEMBL1201862, “PubChem BioAssay data set” (2004).
